For this test, the system named is Cortical neurone. In words: Neurotrophic activity in Sprague-Dawley rat cortical neurons assessed as promotion of neurite outgrowth at 0.1 to 10 uM. In kind it is functional.

This is an account of results in ChEMBL document CHEMBL1150810, “Structure and neurotrophic activity of seco-prezizaane-type sesquiterpenes from Illicium merrillianum” (J Nat Prod, 2001).

The structures appear in SMILES notation. The source made the active and inactive calls. No cut-off for these calls is given here.

With `C[C@@H]1CC[C@@]2(O)C13CC(=O)C1(C)C2(C)CO[C@]1(O)[C@@H]3O`, the result was Active.
The same measure for `C[C@@H]1C[C@@H](O)[C@@]2(O)[C@@]13C[C@@]1(O)OC(OC[C@@]2(C)[C@@]1(C)O)[C@@H]3O`: “inactive”; for `CC1=CC[C@]2(O)[C@@]3(C)COC4O[C@](O)(C[C@@]12[C@H]4O)[C@]3(C)O`: “inactive”.
The result for `C[C@@H]1CC[C@@]2(O)C13CC(=O)C1(C)C2(C)CO[C@]1(OC(=O)c1ccccc1)[C@@H]3O` reads “inactive”; that for `C[C@@H]1CC=C2[C@@]13C[C@@]1(O)OC(OC[C@@]2(C)[C@@]1(C)O)[C@@H]3O`, “inactive”.
Consider `C[C@@H]1CC[C@@]2(O)[C@@]13C[C@@]1(O)OC(OC[C@@]2(C)[C@@]1(C)O)[C@@H]3O`, for which the outcome was inactive.
